Source: PMC12299506, “Flipping the Target: Evaluating Natural LDHA Inhibitors for Selective LDHB Modulation” (Molecules, 2025)

Experiments:
LDHB [1] = biological target: T1, LDHB (Homo sapiens, UniProt P07195); experiment: LDHB activity assay, 96-well endpoint colorimetric (lactate to pyruvate, NADH/NBT/PMS formazan, 570 nm); format: biochemical; details: for IC50: dose-response, nonlinear regression
T1 construct: purchased R&D Systems (Minneapolis, MN, USA) 9205-HB
From the text: This assay is based on the detection of NADH generated during the enzymatic conversion of lactate to pyruvate (via reduction of NAD^+), which subsequently reacts with nitro blue tetrazolium (NBT) in the presence of phenazine methosulfate (PMS). This reaction produces a blue-purple formazan dye with a maximum absorbance at approximately 570 nm.
Unless otherwise specified, all chemicals were obtained from Sigma-Aldrich (St. Louis, MO, USA). Recombinant human LDHB (Catalog #: 9205-HB) was purchased from R&D Systems (Minneapolis, MN, USA). […] AXKO-0046 (Catalog #: HY-147216A) was obtained from MedChemExpress (Monmouth Junction, NJ, USA).
This assay quantifies LDHB activity by measuring NADH generation resulting from the conversion of lactate to pyruvate, a reaction catalyzed by LDHB. The produced NADH reacts with nitro blue tetrazolium (NBT) in the presence of phenazine methosulfate (PMS), generating a blue-purple formazan dye detectable at approximately 570 nm.
The reaction was performed in a buffer containing 50 mM CHES (pH 9.6), 150 mM NaCl, 300 μM NBT, 30 μM PMS, and 0.13% gelatin (used to prevent formazan precipitation). Each well was loaded with 90 μL of the reaction buffer followed by 25 μL of a substrate solution comprising 10 mM NAD^+ and 250 mM sodium lactate in the same buffer. Next, 5 μL of the test compound at varying concentrations was added; the buffer alone was used in the control wells. The plates were incubated for 30 s at 25 °C in the dark before measuring the initial absorbance at 570 nm (Ainitial) using a microplate reader (PerkinElmer, Waltham, MA, USA). The reaction was initiated by adding 2 μL of 7.5 μM LDHB. After a 5 min incubation with continuous shaking, a second absorbance measurement (Afinal) was taken.
The difference in absorbance (ΔA570 = Afinal − Ainitial) was used to calculate the amount of NADH produced by referencing a standard curve (0–15 nmol NADH). Readings were corrected for background using a blank lacking LDHB. One unit of enzyme activity was defined as the amount of enzyme producing 1 μmol of NADH per minute at 25 °C. LDHB activity (mU/mL) was calculated using the following Equation (1):(1) LDH activity(mU/mL)=[NADH](nmol)/Tfinal−Tinitial(min)×V(mL)=nmol/min×mL where [NADH] is the amount (in nmol) of NADH that is released between Tfinal and Tinitial, and V is the sample volume (LDHB in mL) added in each well of the 96-well plate.
IC50 values for each compound were calculated using GraphPad Prism v8.0.2 (GraphPad Software Inc., San Diego, CA, USA) by fitting dose–response curves to the enzymatic activity data via nonlinear regression analysis. All the measurements were performed in triplicate.

LDHA [2] = system: LDHA; parameters: method as in PMID 34571279; details: EMMA; cited from earlier work
LDHA [3] = system: LDHA; parameters: method as in PMID 39054614; details: enzymatic assays; cited from earlier work
LDHB [4] = biological target: T1, LDHB; experiment: Effect of pre-incubation time on LDHB inhibition; format: biochemical; details: pre-incubation with LDHB for 120 min, compound 50 µM
Procedure: Supplementary Figure S2. The eﬀect of pre-incubation time on the inhibitory activity of […]
Each compound (50 µΜ) was incubated with […] of LDHB in a 10 µL reaction within a 96-well plate for varying times. The reaction was carried out in 80 µL of 50 mM CHES buﬀer (pH 9.6) containing 150 mM NaCl, 300 µΜ NBT, 30 µΜ PMS, and 0.13% gelatin, with 10 µL of substrate mix (10 mM NAD+ and 250 mM sodium lactate) added to initiate the reaction. LDHB activity was measured as described in the text, with control wells lacking inhibitors. Statistical signiﬁcance was determined using one way ANONA (p < 0.05), with ʹn.s.ʹ indicating non- […]
(1 picture or pasted object on this page, not shown here)

LDHB [5] = biological target: T1, LDHB; experiment: LDHB kinetic studies (substrate competition, Michaelis-Menten, mixed-model inhibition); format: biochemical; details: for mechanism of LDHB inhibition: Michaelis-Menten analysis, vs lactate and NAD+; for Vmax, NAD+: NAD+ varied, 25 mM sodium lactate; for Vmax, lactate: lactate varied, NAD+ 1 mM; for Ki / α (alpha factor, mechanism of inhibition): mixed-model inhibition fit; for α (alpha factor, mechanism of inhibition): α < 1 uncompetitive
Procedure: These kinetic studies followed the classical Michaelis–Menten framework. For NAD^+ titration, assays were performed using eight NAD^+ concentrations (120, 240, 360, 480, 700, 900, 1000, and 1200 μM) in the presence of 25 mM sodium lactate. For lactate titration, eight lactate concentrations (2.5, 5, 10, 15, 20, 25, 37.5, and 50 mM) were evaluated with a fixed NAD^+ concentration of 1 mM. Each reaction was carried out with 2.5 nM LDHB and increasing concentrations of either inhibitor (5–100 μM), followed by incubation at room temperature for 6.5 min. Initial reaction velocities were determined and fitted to a nonlinear Michaelis–Menten model to extract apparent kinetic parameters (Km and Vmax) using GraphPad Prism v8.0.2 (GraphPad Software Inc., San Diego, CA, USA). Lineweaver–Burk plots (1/V vs. 1/[S]) were also generated to visualize shifts in enzyme kinetics. To complement these analyses, the data were further examined using a mixed-model inhibition approach within GraphPad Prism. This model, which avoids the distortions associated with reciprocal transformations, evaluates inhibition kinetics using polynomial regression and is governed by the following equations [70]. The mixed-model fit is described by Equations (2)–(4), and contains competitive, uncompetitive, and noncompetitive inhibition terms:(2) Vmaxapp=Vmax/(1+I/a·Ki) (3) Kmapp=Km·(1+I/Ki)/(1+I/a·Ki) (4) Y=Vmaxapp·X/(Kmapp+X)
In the above equations, Vmaxapp and Kmapp are the maximum enzyme activity and Michaelis–Menten constant, respectively, in the presence of an inhibitor; Vmax and Km represent the maximum enzyme velocity and Michaelis–Menten constant, respectively, in the absence of an inhibitor; and Ki is the inhibition constant. In addition, X is the substrate concentration, Y is the enzyme activity, I is the inhibitor concentration, and alpha (α) is a coefficient that defines the mechanism of inhibition.

LDHA [6] = details: cited from earlier work
LDHC = details: cited from earlier work

T1 sequence (P07195 whole entry): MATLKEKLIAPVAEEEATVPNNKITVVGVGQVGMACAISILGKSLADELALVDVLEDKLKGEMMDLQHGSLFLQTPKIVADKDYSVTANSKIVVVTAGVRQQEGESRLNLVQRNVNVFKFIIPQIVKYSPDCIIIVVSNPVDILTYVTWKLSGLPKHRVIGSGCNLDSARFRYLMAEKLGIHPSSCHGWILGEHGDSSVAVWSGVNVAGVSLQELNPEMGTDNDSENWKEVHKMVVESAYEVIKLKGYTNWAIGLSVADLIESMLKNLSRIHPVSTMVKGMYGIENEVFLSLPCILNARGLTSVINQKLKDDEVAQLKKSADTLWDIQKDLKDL

Row | Compound | inhibition at 50 µM (LDHB [1]; compound at 50 µM) [%] | IC50 (LDHB [1]) [µM] | inhibition rate of LDHA activity (LDHA [2]) | IC50 (LDHA [3]) [µM] | change of inhibitory effect with longer pre-incubation time (LDHB [4]) | mechanism of LDHB inhibition (LDHB [5]) | Vmax, NAD+ (LDHB [5]; inhibitor 10 μM) [mU/mL] | Vmax, NAD+ (LDHB [5]; inhibitor 20 μM) [mU/mL] | Vmax, NAD+ (LDHB [5]; inhibitor 30 μM) [mU/mL] | Vmax, NAD+ (LDHB [5]; inhibitor 40 μM) [mU/mL] | Vmax, NAD+ (LDHB [5]; inhibitor 50 μM) [mU/mL] | Vmax, NAD+ (LDHB [5]; inhibitor 75 μM) [mU/mL] | Vmax, NAD+ (LDHB [5]; inhibitor 100 μM) [mU/mL] | Vmax, lactate (LDHB [5]; inhibitor 10 μM) [mU/mL] | Vmax, lactate (LDHB [5]; inhibitor 20 μM) [mU/mL] | Vmax, lactate (LDHB [5]; inhibitor 30 μM) [mU/mL] | Vmax, lactate (LDHB [5]; inhibitor 40 μM) [mU/mL] | Vmax, lactate (LDHB [5]; inhibitor 50 μM) [mU/mL] | Vmax, lactate (LDHB [5]; inhibitor 75 μM) [mU/mL] | Vmax, lactate (LDHB [5]; inhibitor 100 μM) [mU/mL] | further results
1 | c1ccc(CNCCc2c(CNC3CCCCCC3)[nH]c3ccccc23)cc1 [AXKO-0046, reference compound] | ~75 | 0.00556 |  |  |  |  |  |  |  |  |  |  |  |  |  |  |  |  |  |  | 
2 | CC[C@@]1(O)C(=O)OCc2c1cc1n(c2=O)Cc2cc3ccccc3nc2-1 [Camptothecin] |  |  | no inhibitory effect |  |  |  |  |  |  |  |  |  |  |  |  |  |  |  |  |  | inhibition of LDHB activity (LDHB [1]; compound at 50 µM): minimal inhibition
3 | O=c1c(O)c(-c2ccc(O)c(O)c2)oc2cc(O)ccc12 [Fisetin] | ~22 |  |  | 0.066 |  |  |  |  |  |  |  |  |  |  |  |  |  |  |  |  | 
4 | O=c1cc(-c2ccc(O)c(O)c2)oc2cc(O)cc(O)c12 [Luteolin] | ~55 | 32.2 | 50.7% | 1.79 | did not increase | uncompetitive inhibition | 945 ± 27 | 868 ± 35 | 774 ± 32 | 664 ± 40 | 563 ± 29 | 456 ± 27 | 417 ± 22 | 942 ± 31 | 888 ± 16 | 832 ± 21 | 749.2 ± 17 | 624 ± 24 | 506 ± 15 | 406 ± 22 | Ki (LDHB [5]; with NAD+): 194 µM; α (alpha factor, mechanism of inhibition) (LDHB [5]; with NAD+): 0.34; Ki (LDHB [5]; with lactate): 349 µM; α (alpha factor, mechanism of inhibition) (LDHB [5]; with lactate): 0.21
5 | O=c1c(O)c(-c2ccc(O)c(O)c2)oc2cc(O)cc(O)c12 [Quercetin] | ~50 | 37.7 | 53.6% | 33.6 | did not increase | uncompetitive inhibition | 952 ± 36 | 861 ± 22 | 761 ± 52 | 701 ± 44 | 605 ± 46 | 504 ± 44 | 454 ± 33 | 938 ± 29 | 881 ± 19 | 791 ± 37 | 689 ± 53 | 621 ± 23 | 557 ± 37 | 478 ± 26 | Ki (LDHB [5]; with NAD+): 539 µM; α (alpha factor, mechanism of inhibition) (LDHB [5]; with NAD+): 0.14; Ki (LDHB [5]; with lactate): 265 µM; α (alpha factor, mechanism of inhibition) (LDHB [5]; with lactate): 0.31
6 | Cc1cc2c(C(C)C)c(O)c(O)c(C=O)c2c(O)c1-c1c(C)cc2c(C(C)C)c(O)c(O)c(C=O)c2c1O [gossypol, Gossypol] |  |  |  |  |  |  |  |  |  |  |  |  |  |  |  |  |  |  |  |  | Ki (LDHA [6]): 1.9 µM; Ki (LDHC): 4.2 µM
